In patent publication US9242996B2 (Novartis AG, priority 2013, dated 2016) one finds IC50 data, which are given here for 24 compounds.

The test deals with activated ERK2 (Homo sapiens (Human), UniProt P28482). Nature of the test: Activated ERK2 (20 pM) Kinase Assay (AlphaScreen, ERKtide phosphorylation). It counts as biochemical. The settings on record: 0.02 nM ERK2, 400 nM ERKtide peptide, 35 μM ATP, 30 min preincubation. The gist of the method: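 AlphaScreen read-out (anti-phospho-EGFR Thr669 antibody, protein A acceptor/streptavidin donor beads) of ERKtide (400 nM) phosphorylation by 20 pM activated ERK2 at 35 μM ATP.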
activated ERK2, sequence (P28482 whole entry): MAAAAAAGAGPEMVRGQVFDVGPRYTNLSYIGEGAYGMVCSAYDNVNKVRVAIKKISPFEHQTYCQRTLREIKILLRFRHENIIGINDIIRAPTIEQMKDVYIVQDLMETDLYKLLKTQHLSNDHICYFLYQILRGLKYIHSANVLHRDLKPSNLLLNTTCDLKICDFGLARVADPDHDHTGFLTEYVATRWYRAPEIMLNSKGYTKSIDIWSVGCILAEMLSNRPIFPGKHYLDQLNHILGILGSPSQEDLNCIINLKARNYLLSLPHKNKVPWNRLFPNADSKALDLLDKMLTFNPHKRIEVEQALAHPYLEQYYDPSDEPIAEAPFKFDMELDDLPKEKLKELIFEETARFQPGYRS
A general note: In Alpha technology, singlet oxygen from a donor bead excites a nearby acceptor bead.
With `Nc1ncc([C@H]2CC[C@@H](F)CC2)nc1-c1ccc(C(=O)N[C@H](CO)c2cccc(Cl)c2)c(F)c1` [Example 448, 4-(3-amino-6-((1s,4R)-4-fluorocyclohexyl)pyrazin-2-yl)-N-((S)-1-(3-chlorophenyl)-2-hydroxyethyl)-2-fluorobenzamide], the midpoint of inhibition, the IC50, lay at 0.371 nM.
The same measure for `Nc1ncc([C@H]2CC[C@H](F)CC2)nc1-c1ccc(C(=O)N[C@H](CO)c2cccc(Cl)c2)c(F)c1` [Example 449, 4-(3-amino-6-((1r,4S)-4-fluorocyclohexyl)pyrazin-2-yl)-N-((S)-1-(3-chlorophenyl)-2-hydroxyethyl)-2-fluorobenzamide]: 0.184 nM; for `N#CC1CCC(c2cnc(N)c(-c3ccc(C(=O)N[C@H](CO)c4cc(F)cc(Br)c4)c(F)c3)n2)CC1` (stereo partly drawn) [Example 450, (S)-4-(3-amino-6-(4-cyanocyclohexyl)pyrazin-2-yl)-N-(1-(3-bromo-5-fluorophenyl)-2-hydroxyethyl)-2-fluorobenzamide]: 1.5 nM; for `N#CC1CCC(c2cnc(N)c(-c3ccc(C(=O)N[C@H](CO)c4cc(F)cc(Br)c4)c(F)c3)n2)CC1` (stereo partly drawn) [Example 451, (S)-4-(3-amino-6-(4-cyanocyclohexyl)pyrazin-2-yl)-N-(1-(3-bromo-5-fluorophenyl)-2-hydroxyethyl)-2-fluorobenzamide]: 0.0442 nM.
Turning to `CNC[C@@H](NC(=O)c1ccc(-c2nc([C@H]3CC[C@H](O)C(F)(F)C3)cnc2N)cc1F)c1cc(F)cc(Br)c1` [Example 458], the midpoint of inhibition, the IC50, lay at 0.0823 nM. Against the preceding compound, the IC50 is about 1.9-fold higher.
For the compound `Nc1ncc([C@@H]2CC[C@@H](O)C(F)(F)C2)nc1-c1ccc(C(=O)N[C@H](CO)c2cc(F)cc(Br)c2)c(F)c1` [Example 459, 4-(3-amino-6-((1R,4R)-3,3-difluoro-4-hydroxy-cyclohexyl)pyrazin-2-yl)-2-fluoro-N-((S)-1-(3-fluoro-5-bromophenyl)-2-hydroxyethyl) benzamide], it took 0.0261 nM to reach half-maximal inhibition (IC50).
The value for `Nc1ncc([C@H]2CC[C@H](O)C(F)(F)C2)nc1-c1ccc(C(=O)N[C@H](CO)c2cc(F)cc(Br)c2)c(F)c1` [Example 460, 4-(3-amino-6-((1S,4S)-3,3-difluoro-4-hydroxy-cyclohexyl)pyrazin-2-yl)-2-fluoro-N-((S)-1-(3-fluoro-5-bromophenyl)-2-hydroxyethyl) benzamide] was 0.0397 nM.
As to `Nc1ncc([C@@H]2CC[C@@H](O)[C@H](O)C2)nc1-c1ccc(C(=O)N[C@H](CO)c2cc(F)cc(I)c2)c(F)c1` [Example 461, 4-(3-amino-6-((1R,3R,4R)-3,4-dihydroxy-cyclohexyl)pyrazin-2-yl)-2-fluoro-N-((S)-1-(3-fluoro-5-iodophenyl)-2-hydroxyethyl) benzamide], the midpoint of inhibition, the IC50, lay at 0.00431 nM. Compared with the last compound, the IC50 is about 9.2-fold lower.
The same measure for `Nc1ncc([C@@H]2CC[C@H](O)[C@H](O)C2)nc1-c1ccc(C(=O)N[C@H](CO)c2cc(F)cc(I)c2)c(F)c1` [Example 462, 4-(3-amino-6-((1R,3R,4S)-3,4-dihydroxy-cyclohexyl)pyrazin-2-yl)-2-fluoro-N-((S)-1-(3-fluoro-5-iodophenyl)-2-hydroxyethyl) benzamide]: 0.135 nM.
The same measure for `Nc1ncc([C@H]2CC[C@H](O)[C@@H](O)C2)nc1-c1ccc(C(=O)N[C@H](CO)c2cc(F)cc(I)c2)c(F)c1` [Example 463, 4-(3-amino-6-((1S,3S,4S)-3,4-dihydroxy-cyclohexyl)pyrazin-2-yl)-2-fluoro-N-((S)-1-(3-fluoro-5-iodophenyl)-2-hydroxyethyl) benzamide]: 0.0055 nM.
On to `Nc1ncc([C@H]2CC[C@@H](O)[C@@H](O)C2)nc1-c1ccc(C(=O)N[C@H](CO)c2cc(F)cc(I)c2)c(F)c1` [Example 464, 4-(3-amino-6-((1S,3S,4R)-3,4-dihydroxy-cyclohexyl)pyrazin-2-yl)-2-fluoro-N-((S)-1-(3-fluoro-5-iodophenyl)-2-hydroxyethyl) benzamide], for which the IC50 (in general, the midpoint of a concentration-inhibition curve) is 0.137 nM. Against the preceding compound, the IC50 is about 25-fold higher.
In turn, `Nc1ncc([C@@H]2CC[C@@H](O)[C@H](O)C2)nc1-c1ccc(C(=O)N[C@H](CO)c2cc(F)cc(Br)c2)c(F)c1` [Example 465, 4-(3-amino-6-((1R,3R,4R)-3,4-dihydroxy-cyclohexyl)pyrazin-2-yl)-2-fluoro-N-((S)-1-(3-fluoro-5-bromophenyl)-2-hydroxyethyl) benzamide] returned an IC50 of 0.0187 nM. This IC50 lies about 7.3-fold lower than the previous one.
For `Nc1ncc([C@H]2CC[C@@H](O)[C@@H](O)C2)nc1-c1ccc(C(=O)N[C@H](CO)c2cc(F)cc(Br)c2)c(F)c1` [Example 466, 4-(3-amino-6-((1S,3S,4R)-3,4-dihydroxy-cyclohexyl)pyrazin-2-yl)-2-fluoro-N-((S)-1-(3-fluoro-5-bromophenyl)-2-hydroxyethyl) benzamide], the midpoint of inhibition, the IC50, lay at 0.218 nM.
Compound `Nc1ncc([C@H]2CC[C@H](O)[C@@H](O)C2)nc1-c1ccc(C(=O)N[C@H](CO)c2cc(F)cc(Br)c2)c(F)c1` [Example 467, 4-(3-amino-6-((1S,3S,4S)-3,4-dihydroxy-cyclohexyl)pyrazin-2-yl)-2-fluoro-N-((S)-1-(3-fluoro-5-bromophenyl)-2-hydroxyethyl) benzamide] had an IC50 of 0.0446 nM. This IC50 is about 4.9-fold lower than that of the compound before.
Regarding `Nc1ncc([C@@H]2CC[C@H](O)[C@H](O)C2)nc1-c1ccc(C(=O)N[C@H](CO)c2cc(F)cc(Br)c2)c(F)c1` [Example 468, 4-(3-amino-6-((1R,3R,4S)-3,4-dihydroxy-cyclohexyl)pyrazin-2-yl)-2-fluoro-N-((S)-1-(3-fluoro-5-bromophenyl)-2-hydroxyethyl) benzamide], the IC50 came out at 0.251 nM.
The value for `CO[C@H]1CC[C@H](c2cnc(N)c(-c3ccc(C(=O)N[C@H](CO)c4cc(F)cc(Br)c4)c(F)c3)n2)C[C@@H]1O` [Example 469, 4-(3-amino-6-((1S,3S,4S)-3-hydroxy,4-methoxylcyclo-hexyl)pyrazin-2-yl)-2-fluoro-N-((S)-1-(3-fluoro-5-bromophenyl)-2-hydroxyethyl) benzamide] was 0.136 nM.
The same measure for `Nc1ncc([C@H]2CCC(F)(F)[C@H](O)C2)nc1-c1ccc(C(=O)N[C@H](CO)c2cccc(Cl)c2)c(F)c1` [Example 470, 4-(3-amino-6-((1S,3R)-4,4-difluoro-3-hydroxycyclo-hexyl)pyrazin-2-yl)-N-((S)-1-(3-chlorophenyl)-2-hydroxyethyl)-2-fluorobenzamide]: 0.221 nM; for `Nc1ncc([C@@H]2CCC(F)(F)[C@H](O)C2)nc1-c1ccc(C(=O)N[C@H](CO)c2cccc(Cl)c2)c(F)c1` [Example 471, 4-(3-amino-6-((1R,3R)-4,4-difluoro-3-hydroxycyclo-hexyl)pyrazin-2-yl)-N-((S)-1-(3-chlorophenyl)-2-hydroxyethyl)-2-fluorobenzamide]: 0.483 nM; for `Nc1ncc([C@@H]2CCC(F)(F)[C@@H](O)C2)nc1-c1ccc(C(=O)N[C@H](CO)c2cccc(Cl)c2)c(F)c1` [Example 472, 4-(3-amino-6-((1R,3S)-4,4-difluoro-3-hydroxycyclo-hexyl)pyrazin-2-yl)-N-((S)-1-(3-chlorophenyl)-2-hydroxyethyl)-2-fluorobenzamide]: 0.179 nM.
With `Nc1ncc(C(=O)N2CCOCC2)nc1-c1ccc(C(=O)N[C@H](CO)c2cc(F)cc(Br)c2)c(F)c1` [Example 473, (S)-4-(3-amino-6-(morpholine-4-carbonyl)pyrazin-2-yl)-N-(1-(3-bromo-5-fluorophenyl)-2-hydroxyethyl)-2-fluorobenzamide], it took 10.5 nM to reach half-maximal inhibition (IC50). This IC50 is about 59-fold higher than that of the compound before.
On to `Nc1ncc(C(=O)N2CCOCC2)cc1-c1ccc(C(=O)N[C@H](CO)c2cc(F)cc(Br)c2)c(F)c1` [Example 474, (S)-4-(2-amino-5-(morpholine-4-carbonyl)pyridin-3-yl)-N-(1-(3-bromo-5-fluorophenyl)-2-hydroxyethyl)-2-fluorobenzamide], for which half-maximal inhibition (IC50) required 1.56 nM.
As to `Nc1ncc(C(=O)N2CCC(CO)CC2)nc1-c1ccc(C(=O)N[C@H](CO)c2cc(F)cc(Br)c2)c(F)c1` [Example 475, (S)-4-(3-amino-6-(4-(hydroxymethyl)piperidine-1-carbonyl)pyrazin-2-yl)-N-(1-(3-bromo-5-fluorophenyl)-2-hydroxyethyl)-2-fluorobenzamide], the IC50 was 9.68 nM.
The same measure for `Nc1ncc(C(=O)N2CC(O)C2)nc1-c1ccc(C(=O)N[C@H](CO)c2cc(F)cc(Br)c2)c(F)c1` [Example 476, (S)-4-(3-amino-6-(3-hydroxyazetidine-1-carbonyl)pyrazin-2-yl)-N-(1-(3-bromo-5-fluorophenyl)-2-hydroxyethyl)-2-fluorobenzamide]: 2.02 nM.
The same measure for `Nc1ncc(C(=O)N2CCC(O)CC2)cc1-c1ccc(C(=O)N[C@H](CO)c2cc(F)cc(Br)c2)c(F)c1` [Example 477, (S)-4-(2-amino-5-(4-hydroxypiperidine-1-carbonyl)pyridin-3-yl)-N-(1-(3-bromo-5-fluorophenyl)-2-hydroxyethyl)-2-fluorobenzamide]: 8.59 nM.
